Results on 13 molecules are retold here after US20070197509A1, “Compositions and methods for modulating gated ion channels” (PainCeptor Pharma Corporation, priority 2005, published 2007).

Common to all, as to type: cell-based
The target in one experiment is T1, hASIC3 (Homo sapiens, UniProt Q9UHC3).
T1 sequence (Q9UHC3 1-531): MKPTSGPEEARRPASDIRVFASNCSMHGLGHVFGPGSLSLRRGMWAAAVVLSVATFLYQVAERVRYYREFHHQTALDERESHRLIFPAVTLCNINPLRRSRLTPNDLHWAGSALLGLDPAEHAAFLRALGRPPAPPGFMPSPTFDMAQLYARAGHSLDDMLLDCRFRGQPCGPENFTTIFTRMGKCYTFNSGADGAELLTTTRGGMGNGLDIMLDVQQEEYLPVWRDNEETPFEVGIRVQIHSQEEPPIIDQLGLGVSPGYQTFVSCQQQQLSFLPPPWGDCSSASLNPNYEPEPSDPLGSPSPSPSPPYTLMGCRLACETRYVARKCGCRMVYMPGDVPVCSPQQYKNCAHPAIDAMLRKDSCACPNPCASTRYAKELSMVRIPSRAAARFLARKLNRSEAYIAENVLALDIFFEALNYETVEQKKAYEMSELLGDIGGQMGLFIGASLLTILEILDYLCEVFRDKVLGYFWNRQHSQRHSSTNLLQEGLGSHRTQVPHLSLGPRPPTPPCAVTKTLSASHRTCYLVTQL
The experiment in a line: FlexStation assay on HEK293 cells expressing hASIC3. Also on record: expressed in transfected cells; host or cells: HEK293 cells. Conditions: for IC50: FlexStation (Flex), Tables A-F, read-out: Biological Data (IC50 uM) h3 (Flex); for EC50: Table H, cells marked (h3), HEK293, read-out: EC50 (μM) Flex/FLIPR (h3). How it is done:
A vial of FMP dye (Molecular Devices) is resuspended in 10.5 ml of assay buffer (48.3 mM NaCl, 93 mM NMDG, 5 mM KCl, 5 mM CaCl2, 1 mM MgCl2, 10 mM HEPES, pH 7.4). The culture medium is aspirated from the wells, and 100 μl of the FMP loading solution is added to each well. The cells are incubated at 37° C. for 30 min.
After the loading period, the loading solution is left on the cells and the membrane potential-induced fluorescence is measured in FLIPR™ or FlexStation™ (Molecular Devices, USA), or any other suitable equipment known to the skilled in the art.
For cells co-expressing ASIC1a and ASIC3 channels (e.g. HEK293 cells), membrane potential dye (FMP dye) is used and the FlexStation settings are as above.
The MES-induced peak calcium response (or change in membrane potential), in the presence of test substance, is expressed relative to the MES response alone. Test substances that block the MES-induced calcium response (or change in membrane potential) are re-tested in triplicates. Confirmed hits are picked for further characterization by performing full dose-response curves to determine potency of each hit compound as represented by the IC50 values (i.e., the concentration of the test substance which inhibits 50% of the MES-induced calcium and/or membrane potentiation response; see, for example, FIG. 1).
The data shown in Table H was acquired using the FlexStation assay described in Example 1 on HEK293 cells expressing hASIC3 (h3) and/or hASIC1a (h1a).

Experiment [1] deals with T2, hASIC1a (Homo sapiens, UniProt P78348).
T2 sequence (P78348 1-528): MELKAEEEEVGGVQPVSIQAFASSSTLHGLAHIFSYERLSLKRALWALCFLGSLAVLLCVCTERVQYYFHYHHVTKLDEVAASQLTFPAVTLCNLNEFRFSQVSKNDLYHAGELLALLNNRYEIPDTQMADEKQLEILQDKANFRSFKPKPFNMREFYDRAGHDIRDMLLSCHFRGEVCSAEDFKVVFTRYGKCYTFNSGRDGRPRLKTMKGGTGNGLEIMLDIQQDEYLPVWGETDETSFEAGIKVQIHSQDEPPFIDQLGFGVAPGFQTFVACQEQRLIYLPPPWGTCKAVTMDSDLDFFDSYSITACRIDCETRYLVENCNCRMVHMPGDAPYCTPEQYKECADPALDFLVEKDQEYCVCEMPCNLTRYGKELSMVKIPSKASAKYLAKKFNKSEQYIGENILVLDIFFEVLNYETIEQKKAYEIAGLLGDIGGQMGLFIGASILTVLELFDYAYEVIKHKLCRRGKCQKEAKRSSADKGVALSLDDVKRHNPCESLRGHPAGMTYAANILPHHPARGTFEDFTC
The experiment in a line: Two-electrode voltage clamp in Xenopus laevis oocytes expressing hASIC1a (OpusExpress). More on the design: expressed in transfected cells; host or cells: Xenopus laevis oocytes, nuclear microinjection of cDNA (e.g. in pCDNA3). How it is done: Two-electrode voltage clamp electrophysiological assays in Xenopus laevis oocytes expressing gated ion channels are performed as follows:
Oocytes are surgically removed from adult Xenopus laevis and treated for 2 h at room temperature with 1 mg/ml type I collagenase (Sigma) in Barth's solution under mild agitation. Selected oocytes at stage IV-V are defolliculated manually before nuclear microinjection of 2.5-5 ng of a suitable expression vector, such as pCDNA3, comprising the nucleotide sequence encoding a gated ion channel subunit protein. In such an experiment, the oocytes express homomultimeric proton-gated ion channels on their surface. In an alternate experiment, one, two, three or more vectors comprising the coding sequences for distinct gated ion channel subunits are co-injected in the oocyte nuclei. In the latter case, oocytes express heteromultimeric proton-gated ion channels. […] Once impaled with the microelectrodes, oocytes are continuously superfused at 10-12 ml/min with a modified Ringer's solution containing 97 mM NaCl, 2 mM KCl, 1.8 mM CaCl2, and 10 mM HEPES brought to pH 7.4 with NaOH (Control Ringer). Test Ringer solution is prepared by replacing HEPES with MES and adjusting the pH to the desired acidic value. Compounds of the present invention are prepared in both the Control and Test Ringer solutions and applied to oocytes at room temperature through a computer-controlled switching valve system. […] Similarly, recordings can also be acquired in an automated multichannel oocytes system as the OpusExpress™ (Molecular Devices, Sunnyvale, Calif., USA).
Recordings were acquired from oocytes expressing homomeric hASIC1a using a two-electrode voltage-clamp configuration procedure as described herein.

The target of experiment [2] is T2, hASIC1a. The experiment in a line: Whole-cell patch clamp of acid-induced currents in cells transfected with hASIC1a. Also on record: expressed in transfected cells. The following applies: patch clamp (PC), Tables A-F, h1a printed in some cells only. The method, then:
Another example of an in vitro assessment method consists of using mammalian heterologous expression systems, which are known to those skilled in the art, and include a variety of mammalian cell lines such as COS, HEK, e.g., HEK293 and/or CHO, cells. Cell lines are transfected with gated ion channel(s) and used to perform electrophysiology as follows:
All experiments are performed at room temperature (20-25° C.) in voltage clamp using conventional whole cell patch clamp methods (Neher, E., et al. (1978) Pfluegers Arch 375:219-228).
The amplifier used is the EPC-9 (HEKA-electronics, Lambrect, Germany) run by a Macintosh G3 computer via an ITC-16 interface. Experimental conditions are set with the Pulse-software accompanying the amplifier. Data is low pass filtered and sampled directly to hard-disk at a rate of 3 times the cut-off frequency.
Pipettes are pulled from borosilicate glass using a horizontal electrode puller (Zeitz-lnstrumente, Augsburg, Germany). The pipette resistances are 2-3 MOhms in the salt solutions used in these experiments. The pipette electrode is a chloridized silver wire, and the reference is a silver chloride pellet electrode (In Vivo Metric, Healdsburg, USA) fixed to the experimental chamber. The electrodes are zeroed with the open pipette in the bath just prior to sealing.
Coverslips with the cells are transferred to a 15 μl experimental chamber mounted on the stage of an inverted microscope (IMT-2, Olympus) supplied with Nomarski optics. Cells are continuously superfused with extracellular saline at a rate of 2.5 ml/min. After giga-seal formation, the whole cell configuration is attained by suction. The cells are held at a holding voltage of −60 mV and at the start of each experiment the current is continuously measured for 45 s to ensure a stable baseline. Solutions of low pH (<7) are delivered to the chamber through a custom-made gravity-driven flowpipe, the tip of which is placed approximately 50 μm from the cell. Application is triggered when the tubing connected to the flowpipe is compressed by a valve controlled by the Pulse-software. Initially, low pH (in general, pH 6.5) is applied for 5 s every 60 s. The sample interval during application is 550 μs. After stable responses are obtained, the extracellular saline as well as the low-pH solution are switched to solutions containing the compound to be tested. The compound is present until responses of repeatable amplitude are achieved. Current amplitudes are measured at the peak of the responses, and effect of the compounds is calculated as the amplitude at compound equilibrium divided by the amplitude of the current evoked by the pulse just before the compound was included.
The following salt solutions are used: extracellular solution (mM): NaCl (140), KCl (4), CaCl2 (2), MgCl2 (4), HEPES (10, pH 7.4); intracellular solution (mM): KCl (120), KOH (31), MgCl2 (1.785), EGTA (10), HEPES (10, pH 7.2). In general, compounds for testing are dissolved in 50% DMSO at 500 fold the highest concentration used.
CHO cells were transfected with hASIC1a and used to perform full dose-inhibition curves with Compound B, and Compound R. Results are expressed as a fraction of the control peak current obtained in the absence of the test substance.

The mark [3] stands for this setting: OpusExpress (OX), Tables A-F, h1a printed in some cells only, read-out: Biological Data (IC50 uM) h1a (OX).
Setting [4] is: OpusExpress (OX), Tables A-F, h1a printed in some cells only.
Where [5] appears, read: Table H, read-out: IC50 (μM) Opus Express (h1a).

Regarding `O=C(O)c1cc(-c2ccc(Cl)cc2)nc2ccc(Cl)cc12` [Compound 36, 6-chloro-2-(4-chloro-phenyl)-quinoline-4-carboxylic acid], the IC50 at hASIC3 is 15 to 25 µM; on hASIC1a [1] (setting [3]), more than 50 µM.

In the case of `COc1ccc(-c2cc(C(=O)O)c3cc(Cl)ccc3n2)c(O)c1` [Compound 37, 6-chloro-2-(2-hydroxy-4-methoxy-phenyl)-acid], the concentration for half-maximal inhibition (IC50) at hASIC3 lay in the range of 10 to 20 µM.

For the molecule `COc1ccc(N2CCN(C(=O)c3cc(-c4ccc(OC)c(OC)c4)nc4ccccc34)CC2)cc1` [Compound 41, [2-(3,4-dimethoxy-phenyl)-quinolin-4-yl]-[4-(4-methoxy-phenyl)-piperazin-1-yl]-methanone], the “Biological Data (IC50 uM) h1a (PC)” value at hASIC1a [2] was “Not Active (OX, PC)”. Further, the “Biological Data (IC50 uM) h1a (OX)” value at hASIC1a [1] (setting [4]) was “Not Active (OX, PC)”.

On to `COc1ccc(-c2cc(C(=O)N3CCN(Cc4ccc5c(c4)OCO5)CC3)c3cc(Cl)ccc3n2)cc1` [Compound 44, (4-benzo[1,3]dioxol-5-ylmethyl-piperazin-1-yl)-[6-chloro-2-(4-methoxy-phenyl)-quinolin-4-yl]-methanone], for which, on hASIC1a [2], the “Biological Data (IC50 uM) h1a (PC)” value is given as “Not Active (OX, PC)”. Further, at hASIC1a [1] (setting [4]), the “Biological Data (IC50 uM) h1a (OX)” value is recorded as “Not Active (OX, PC)”.

For the molecule `Cc1ccc(-c2nc(Nc3ccc(C(=O)O)cc3)c3cc(Cl)ccc3n2)cc1` [Compound 107, 4-(6-chloro-2-p-tolyl-quinazolin-4-ylamino)-benzoic acid], the half-inhibitory concentration (IC50) on hASIC1a [2] (read-out: Biological Data (IC50 uM) h1a (PC)) was more than 30 µM; on hASIC3, 20 to 30 µM.

With `COc1ccc(CN2CCC(Oc3cc(C)nc4ccccc34)CC2)cc1` [Compound 112, 4-[1-(4-Methoxy-benzyl)-piperidin-4-yloxy]-2-methyl-quinoline], the IC50 at hASIC1a [1] (setting [3]) lay in the range of 15 to 25 µM.

For the molecule `C=CCOC(=O)N1CCC(Oc2cc(C)nc3ccccc23)CC1` [Compound 113, 4-(2-methyl-quinolin-4-yloxy)-piperidine-1-carboxylic acid allyl ester], the IC50 on hASIC1a [1] (setting [3]) was more than 30 µM; at hASIC1a [1] (setting [5]), 17.1 µM.

Regarding `CN1CCN(c2nc(-c3ccccc3F)nc3ccccc23)CC1` [Compound L, 2-(2-fluoro-phenyl)-4-(4-methyl-piperazin-1-yl)-quinazoline], at hASIC3, the IC50 was in the range of 5 to 15 µM and the EC50 was more than 10 µM.

Take `Cc1cc(N2CCNCC2)c2ccccc2n1` [Compound M, 2-methyl-4-piperazin-1-yl-quinoline]: at hASIC3, the half-inhibitory concentration (IC50) was in the range of 5 to 15 µM and the EC50 was more than 10 µM. The “Biological Data (IC50 uM) h1a (OX)” value on hASIC1a [1] (setting [4]) is “inactive”. For the same molecule, the “IC50 (μM) Opus Express (h1a)” value on hASIC1a [1] (Table H) is given as “Inactive”.

In the case of `Cc1cc(N2CCN(C(=O)OCc3ccccc3)CC2)c2ccccc2n1` [Compound N, 4-(2-methyl-quinolin-4-yl)-piperazine-1-carboxylic acid benzyl ester], at hASIC3, the EC50 is more than 20 µM. The “IC50 (μM) Opus Express (h1a)” value on hASIC1a [1] (Table H) is listed as “Inactive”.

`Cc1cc(N2CCN(Cc3ccc4c(c3)OCO4)CC2)c2ccccc2n1` [Compound P]: on hASIC3, the half-maximal inhibitory concentration (IC50) was in the range of 10 to 20 µM and the EC50 is more than 10 µM. At hASIC1a [1] (setting [5]), the IC50 is more than 50 µM.

In the case of `FC(F)(F)c1ccc2c(OC3CCN(Cc4ccccc4)CC3)ccnc2c1` [Compound S, 4-(1-benzyl-piperidin-4-yloxy)-7-trifluoromethyl-quinoline], on hASIC3, the half-inhibitory concentration (IC50) lay in the range of 25 to 35 µM and the EC50 was more than 20 µM.

With `Cc1ccc(-c2nc(Nc3cccc(C(=O)O)c3)c3ccccc3n2)cc1` [Compound T, 3-(2-p-tolyl-quinazolin-4-ylamino)-benzoic acid], on hASIC3, the EC50 is more than 20 µM.

The IC50 is the concentration needed to halve the response being measured.
